According to patent US12410157B2, “Compound useful as toll-like receptor 7 activation inhibitor” (TOYAMA PREFECTURAL UNIVERSITY, priority 2020, dated 2025):
Values joined by “and” are separate entries in the source; they are usually repeats but may differ in a detail not shown here. Identical values can stand only once.

Tests used:
[1] = tested on: Cytochrome P450 (CYP), mouse liver microsomes; assay: Metabolic stability (CYP) using mouse liver microsomes, HPLC; format: in vitro ADME; details: for Area (%) of peak: LC-UV (220 nm)
Method: For CB-7, B2-24, and B2-5A, 10 mg/mL DMSO solution was used. Each chemical compound was diluted with acetonitrile to 0.1 mg/mL, which was used as the analytical standard. Mouse liver microsomal fractions were rapidly thawed in a warm bath at 37° C. and kept on ice. Reaction buffer containing CYP cofactor was prepared on ice and mixed with the microsomal fractions. The reaction solution was preincubated at 37° C. for 5 minutes, and then the test substance solution was added and mixed well by pipetting. The volume of the reaction solution was 200 μL and the final concentration of the test substance was 0.1 mg/mL. The reaction solution was incubated at 37° C. for 30 minutes or 2 hours, and the reaction was stopped by adding 3 times the volume of acetonitrile and vortexing. After the reaction was stopped, the samples were centrifuged, and each supernatant was separated and dried in an evaporator. 50 μL of 50% acetonitrile solution was added to each solidified sample, and each sample was re-dissolved by vortexing for 5 minutes. Each redissolved solution was centrifuged, and each supernatant was subjected to HPLC analysis using a HITACHI Lachrom ELITE (HITACHI) as a HPLC system and COSMOSIL 5C18-MS-II, 4.6 mmI.D.×150 mm (nacalai tesque Co.) as a column.
Metabolic stability analysis of CB-7 and B2-24-4-5A·HCOOH was performed by the method of Example 5.

[2] = tested on: systemic lupus erythematosus model mice (NZBWF1); assay: Therapeutic effect in mouse model of spontaneous systemic lupus erythematosus; format: in vivo
Method: Systemic lupus erythematosus model mice (NZBWF1, 20 weeks old, female, n=55) were divided into saline-administered group (control, n=25), B2-24-4-5A·HCOOH-administered group (n=10), B2-24-4·HCOOH-administered group (n=5) and HCQ-administered group (n=15). The saline-administered group received saline (100 l) orally once a day, every day; the B2-24-4-5A·HCOOH-administered group received 10 mg/kg of B2-24-4-5A·HCOOH (100 l) orally once a day, every day; the B2-24-4·HCOOH-administered group received 10 mg/kg of B2-24-4·HCOOH (100 l) orally once a day, every day; the HCQ-administered group received 10 mg/kg of HCQ (100 l) orally once a day, every day. Fifteen weeks after the start of treatment, urine was collected from surviving mice in the saline-administered group (control, n=17), B2-24-4-5A·HCOOH-administered group (n=10), B2-24-4·HCOOH-administered group (n=5), and HCQ-administered group (n=12), and the mice were euthanized. After euthanasia, blood was drawn from the abdominal aorta of the mice, and the kidneys and spleen were removed.
Mice that died of natural causes during the 15-week period from the start of treatment were counted as deaths, and survival analysis was performed using the Kaplan Meier method. Blood collected from the abdominal aorta of each mouse, excluding the deceased cases, was centrifuged and serum was prepared. Determination of urea nitrogen and creatinine levels in serum was entrusted to Oriental Yeast Co. Albumin levels in urine were determined by ELISA (used kit: Levis Urinary Albumin-Mouse (S-type) (trade name) (Fujifilm Wako Shibayagi Corporation)). The removed kidneys were fixed with 4% (w/v) paraformaldehyde, and immunohistochemical staining was entrusted to Morpho Technology, Inc. In PAS-stained kidney tissue sections, histological findings of 100 glomeruli were evaluated. For increased cells and substrate in the mesangial area, endothelial cell swelling and cellular infiltration of the capillary lumen (intratubular proliferation), and glomeruli with inflammatory crescents (extratubular proliferation), each of the 100 glomeruli was assigned a grade from grade 0 to grade 2 according to severity and scored on a 6-point scale.
FIG. 10F is a photograph showing C3 deposition in the glomeruli of a mouse (#1) in the saline-administered group, a mouse (#10) in the B2-24-4-5A·HCOOH-administered group, a mouse (#4) in the B2-24-4·HCOOH-administered group and a mouse (#14) in the HCQ-administered group. […] In the renal tissue sections of a mouse (#1) in the saline-administered group, findings of active glomerulonephritis such as diffuse mesangial and intratubular proliferation were observed. […] The plots in FIGS. 10B, 10C, and 10D show the data for each individual, each bold line is the mean of the group data, and each error bar standard error. Scale bars in FIGS. 10E and 10F represent 100 μm. […]

In the case of `C=C(C)[C@@H]1CC[C@]2(COC(=O)C2)C[C@H]1c1ccc(CN2CCNCC2)cc1` [B2-24-4-5A·HCOOH], the “Number of peaks detected by HPLC” value ([1]; Example 9) is reported as 6, the “Area (%) of peak” value ([1]; Example 9, 0 h) is reported as 100% and the “Area (%) of peak” value ([1]; Example 9, incubation 0.5 h) is reported as 95.4%. For the same compound, the “Area (%) of peak” value ([1]; Example 9, incubation 2.0 h) was 88.4%, the “Drug metabolism mainly by CYPs compared to CB-7” value ([1]; words) was “significantly improved drug metabolism” and the “Surviving mice fifteen weeks after the start of treatment” value ([2]; 10 mg/kg orally once a day, groups started with n=10, n=5, n=15 (HCQ)) was 10. The score ([2]; per mouse, histological score on a 6-point scale) was 0.23 and 0.15 and 0.42 and 0.09 (2×) and 0.24 and 0.03 and 0.04 and 0.14 and 0.52, the “Inside 0” value ([2]; per mouse, of 100 glomeruli, endothelial cell swelling and cellular infiltration of capillary lumen, Grade 0) was 99 (2×) and 100 (3×) and 78 and 96 and 94 and 97 and 74 and the “Inside 1” value ([2]; per mouse, of 100 glomeruli, endothelial cell swelling and cellular infiltration of capillary lumen, Grade 1) was 1 (2×) and 0 (3×) and 18 and 4 and 6 and 3 and 20. The “Inside 2” value ([2]; per mouse, of 100 glomeruli, endothelial cell swelling and cellular infiltration of capillary lumen, Grade 2) was 0 (8×) and 4 and 6, the “Outside 0” value ([2]; per mouse, of 100 glomeruli, glomerulus with semilunar, Grade 0) was 99 and 100 (9×) and the “Outside 1” value ([2]; per mouse, of 100 glomeruli, glomerulus with semilunar, Grade 1) was 1 and 0 (9×). The “Outside 2” value ([2]; per mouse, of 100 glomeruli, glomerulus with semilunar, Grade 2) was 0, the Mes0 ([2]; per mouse, of 100 glomeruli, increase in cells and substrates in the mesangium region, Grade 0: None, 10 mg/kg orally, 15 weeks, 10 mg/kg) was 80 (3×) and 86 (2×) and 92 (2×) and 97 and 96 and 94 and the Mes1 ([2]; per mouse, of 100 glomeruli, mesangium region, Grade 1: Moderate or lower) was 19 and 13 and 12 and 8 (2×) and 20 (2×) and 3 and 4 and 6. For the same compound, the Mes2 ([2]; per mouse, of 100 glomeruli, mesangium region, Grade 2: Moderate or higher) was 1 (2×) and 2 and 0 (7×).
